Assay results: ChEMBL document CHEMBL1152232, “Muscarinic acetylcholine receptor antagonists: SAR and optimization of tyrosine ureas” (Bioorg Med Chem Lett, 2008)

What was measured:
[1] = biological target: Muscarinic acetylcholine receptor M3 (Homo sapiens, UniProt P20309); assay: Antagonist activity at human recombinant muscarinic M3 receptor expressed in CHO cells assessed as inhibition of acetylcholine-induced intracellular Ca2+ mobilization by FLIPR assay; type: functional, cell-based
[2] = biological target: T1, Muscarinic acetylcholine receptor M1 (Homo sapiens, UniProt P11229); assay: Antagonist activity at human recombinant muscarinic M1 receptor expressed in CHO cells assessed as inhibition of acetylcholine-induced intracellular Ca2+ mobilization by FLIPR assay; type: functional, cell-based
T1 sequence (P11229 whole entry): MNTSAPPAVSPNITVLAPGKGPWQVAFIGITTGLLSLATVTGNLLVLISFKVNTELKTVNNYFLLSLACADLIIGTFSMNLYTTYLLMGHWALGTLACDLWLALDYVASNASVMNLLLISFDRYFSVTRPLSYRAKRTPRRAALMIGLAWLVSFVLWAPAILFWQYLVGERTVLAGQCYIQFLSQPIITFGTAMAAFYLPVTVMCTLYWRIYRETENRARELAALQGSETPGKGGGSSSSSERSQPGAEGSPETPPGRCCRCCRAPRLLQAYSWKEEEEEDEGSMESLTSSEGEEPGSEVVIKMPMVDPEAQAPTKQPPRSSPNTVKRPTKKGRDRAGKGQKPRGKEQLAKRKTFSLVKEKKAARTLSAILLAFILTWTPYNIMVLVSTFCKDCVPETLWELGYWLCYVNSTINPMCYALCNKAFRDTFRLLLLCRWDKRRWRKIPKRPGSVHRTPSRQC

[3] = biological target: T2, Muscarinic acetylcholine receptor M2 (Homo sapiens, UniProt P08172); assay: Antagonist activity at human recombinant muscarinic M2 receptor expressed in CHO cells coexpressing chimeric G protein Gqi5 assessed as inhibition of acetylcholine-induced intracellular Ca2+ mobilization by FLIPR assay; type: functional, cell-based
T2 sequence (P08172 whole entry): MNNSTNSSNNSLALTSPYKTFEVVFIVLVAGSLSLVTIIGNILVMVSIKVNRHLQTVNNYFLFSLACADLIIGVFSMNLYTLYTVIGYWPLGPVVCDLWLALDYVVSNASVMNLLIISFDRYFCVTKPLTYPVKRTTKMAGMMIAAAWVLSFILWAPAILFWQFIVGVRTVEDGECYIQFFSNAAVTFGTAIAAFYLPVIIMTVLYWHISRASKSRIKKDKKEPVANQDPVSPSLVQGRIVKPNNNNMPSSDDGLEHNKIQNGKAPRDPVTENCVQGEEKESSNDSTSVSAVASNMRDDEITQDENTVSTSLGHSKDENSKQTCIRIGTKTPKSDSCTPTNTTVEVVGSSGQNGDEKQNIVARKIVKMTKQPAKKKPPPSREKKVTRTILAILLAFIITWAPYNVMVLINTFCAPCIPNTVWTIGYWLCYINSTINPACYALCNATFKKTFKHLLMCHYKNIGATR

[4] = biological target: Muscarinic acetylcholine receptor M1 and M3 (Homo sapiens) (UniProt P20309+P11229); assay: Selectivity for human recombinant muscarinic M3 receptor over human recombinant muscarinic M1 receptor
[5] = biological target: Muscarinic acetylcholine receptors; M2 & M3 (Homo sapiens) (UniProt P20309+P08172); assay: Selectivity for human recombinant muscarinic M3 receptor over human recombinant muscarinic M2 receptor
[6] = Permeability across artificial membrane; type: ADME; conditions: PAMPA; read-out: permeability

Chain of Muscarinic acetylcholine receptor M3 (P20309 whole entry): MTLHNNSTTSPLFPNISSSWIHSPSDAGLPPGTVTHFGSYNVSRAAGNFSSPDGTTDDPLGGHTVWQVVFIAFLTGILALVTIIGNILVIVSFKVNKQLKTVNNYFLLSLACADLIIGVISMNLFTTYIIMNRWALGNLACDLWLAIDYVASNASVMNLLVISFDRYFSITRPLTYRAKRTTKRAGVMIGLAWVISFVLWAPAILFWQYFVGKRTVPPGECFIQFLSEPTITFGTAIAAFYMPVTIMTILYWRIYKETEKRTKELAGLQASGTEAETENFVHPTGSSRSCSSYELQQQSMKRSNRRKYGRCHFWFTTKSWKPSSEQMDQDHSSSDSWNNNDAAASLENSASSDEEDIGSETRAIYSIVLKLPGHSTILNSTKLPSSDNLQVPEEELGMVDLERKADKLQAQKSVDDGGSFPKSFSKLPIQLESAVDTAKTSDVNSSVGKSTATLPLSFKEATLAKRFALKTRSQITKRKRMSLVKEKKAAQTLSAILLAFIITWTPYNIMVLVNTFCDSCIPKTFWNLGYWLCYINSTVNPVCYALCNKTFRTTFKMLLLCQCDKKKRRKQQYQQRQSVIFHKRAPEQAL
Chain of Muscarinic acetylcholine receptor M1 and M3 (Homo sapiens) (P20309 whole entry, looked up, one chain of several): as the sequence (P20309 whole entry) above
Chain of Muscarinic acetylcholine receptors; M2 & M3 (Homo sapiens) (P20309 whole entry, looked up, one chain of several): as the sequence (P20309 whole entry) above

Row | Structure (SMILES) | IC50 [1] [nM] | IC50 [2] [nM] | IC50 [3] [nM] | Selectivity ratio [4] | Selectivity ratio [5] | Papp [6] [×10⁻⁶ cm/s]
1 | CC(C)OC(=O)c1ccc(NC(=O)N[C@@H](Cc2ccc(O)cc2)C(=O)N[C@H]2CCC[N+](C)(Cc3cccc(O)c3)C2)cc1.[I-] (stereo partly specified) | – | – | – | – | – | < 0.3
2 | CCOC(=O)c1ccc(NC(=O)N[C@@H](Cc2ccc(O)cc2)C(=O)NC2CCN(Cc3ccccc3)C2)cc1 (stereo partly specified) | 15.8 | 2000 | 200 | 100 | 10 | –
3 | CCOC(=O)c1ccc(NC(=O)N[C@@H](Cc2ccc(O)cc2)C(=O)NC2CCN(CC)C2)cc1 (stereo partly specified) | 794 | > 3160 | 2510 | 100 | 10 | –
4 | CCOC(=O)c1ccc(NC(=O)N[C@@H](Cc2ccc(O)cc2)C(=O)NC2CCN(Cc3ccccc3OC)C2)cc1 (stereo partly specified) | 50.1 | 1000 | 158 | 100 | 10 | –
5 | CCOC(=O)c1ccc(NC(=O)N[C@@H](Cc2ccc(O)cc2)C(=O)NC2CCN(Cc3ccc(OC)cc3)C2)cc1 (stereo partly specified) | 20 | 501 | 251 | 100 | 10 | –

The remaining lines, values ahead:

Row | IC50 [1] [nM] | IC50 [2] [nM] | IC50 [3] [nM] | Selectivity ratio [4] | Selectivity ratio [5] | Papp [6] [×10⁻⁶ cm/s] | Structure (SMILES)
6 | 7.94 | 1260 | 126 | 100 | 10 | – | CCOC(=O)c1ccc(NC(=O)N[C@@H](Cc2ccc(O)cc2)C(=O)NC2CCN(Cc3cccc(Cl)c3)C2)cc1 (stereo partly specified)
7 | 6.31 | 251 | 100 | 100 | 10 | – | CCOC(=O)c1ccc(NC(=O)N[C@@H](Cc2ccc(O)cc2)C(=O)NC2CCN(Cc3cccc(C#N)c3)C2)cc1 (stereo partly specified)
8 | 31.6 | 1000 | 200 | 100 | 10 | – | CCOC(=O)c1ccc(NC(=O)N[C@@H](Cc2ccc(O)cc2)C(=O)NC2CCN(Cc3ccc4c(c3)OCO4)C2)cc1 (stereo partly specified)
9 | 20 | 794 | 158 | 100 | 10 | – | CCOC(=O)c1ccc(NC(=O)N[C@@H](Cc2ccc(O)cc2)C(=O)NC2CCN(Cc3cccc(O)c3)C2)cc1 (stereo partly specified)
